This assay concerns the target Carbonic anhydrase 9 (Homo sapiens, UniProt Q16790).

pKi: −log10 of the molar value.

`NS(=O)(=O)c1ccc2c(c1)CC(NC(=O)c1c(F)c(F)c(F)c(F)c1F)C2` (configuration not stated) showed a pKi of 7.48.

Regarding `CCCCCCCCCC(=O)NC1Cc2ccc(S(N)(=O)=O)cc2C1` (configuration not stated), the pKi is 8.43.

One may read the pKi as the negative decadic logarithm of the Ki, by convention in mol/L. A high value points to a small Ki.

(Values after ChEMBL document CHEMBL1147657, “Indanesulfonamides as carbonic anhydrase inhibitors. Toward structure-based design of selective inhibitors of the tumor-associated isozyme CA IX” (J Med Chem, 2006).)
